What was measured:
[1] = system: R217A mutant lines and background strain mice; test: Maximal electroshock procedure (MES); type: in vivo, mouse; conditions: for responsiveness to anticonvulsant effects: all background strains, mutant, heterozygous mutant and wildtype (all lines)
Description: WT mice were tested at 0.1 mA, HET mice were tested at 0.4 mA and KI mice were tested at 0.7 InA. Each experiment included a no-shock vehicle control group for direct comparison to the concurrent vehicle punished-responding group to determine percent suppression of drinking. […] Sedation was noted by the observer as previously described. […] Electroshock in mice was delivered using corneal electrodes with varied electroshock intensity. Current was delivered (60 Hz sinusoidal current, 11 to 17 mA baseline to peak vs. 50 mA for 0.2 s) using a constant-current stimulator (Wahlquist Instruments, Salt Lake City, Utah). The intensities of current necessary to produce tonic extensor seizures for each mouse strain and mutant lines in all of the mice were determined. These currents were then used for further testing of mice with pregabalin. All dose-response testing was conducted at the previously determined time of peak drug effect. Groups of 10 mice each were give various intraperitoneal doses of pregabalin dissolved in 0.9% saline, diazepam (veh) or phenytoin and given in a volume of 10 ml/kg of body weight. […] At least four groups of mice and each animal was employed once. The animals, pretreated with different doses of the tested drugs, were challenged with one electroshock at previously determined times of peak drug effect (pregabalin: 120 min; diazepam: 60 min; phenytoin; 60 min)

[2] = system: α2/δ1 in mouse brain membranes; test: 3H gabapentin binding to whole mouse brain membranes, R217A mutant vs wildtype; conditions: R217A mutant mouse in comparison to wildtype mice; tracer 3H gabapentin; FIG. 3
Description: Membranes were prepared from whole mouse brains. […] Total binding was determined in the absence of competitor. Non-specific binding was determined in the presence of 10 μM unlabeled pregabalin.

[3] = system: WT, HET and KI R217A mice and parent strains; test: Vogel water-lick conflict; type: in vivo, mouse; conditions: for minimally effective dose (MED), Vogel: IP (doses tested in mg/kg); for anxiolytic-like effect / punished licking, Vogel: R217A knockins (homozygous)
Description: Two strains used to generate the mutant mice, C57BU6J (Jackson Laboratories), and 129S6/SvEV (Taconic Farms), were also evaluated. Albino or C57BL/6J-Tyr were also included in the experiments for comparison purposes. Male C57BL/6J (Jackson Laboratories), and 129S6/SvEV (Taconic Farms) mice were received at 8 weeks old in quantities sufficient for each study to be completed in one experiment. Parent strains were housed one week prior to testing. All animals were housed in a temperature and humidity controlled room under a 12L: 12D schedule (lights on @06:00 h). All mice were housed in isolators (3-5/cage) with the exception of C57BU6J mice that were housed on wire racks (12/cage).
On the side of each chamber (1.5 in. above the floor) a module optical lickometer was mounted. The lickometer was used to measure licking from a drink tube attached to a water bottle mounted on the exterior of the chamber. A photo beam was piped via glass rods across a gap at the end of the drink tube. The subject's tongue breaks the beam when it drinks from the tube and each lick was automatically recorded. […] The reduced chamber space limited the animal's activity and directed behavior towards the drink tube during a 10-minute session. The front and back of the test chamber was made of clear Plexiglas. The front door was covered to reduce distractions from inside the test room. The back of the test chamber faced a wall, away from the flow of traffic in the testing room, and remained uncovered to provide the opportunity for observations. Shock was delivered between the grid floor and the drink tube using a (Coulbourn) programmable universal shocker for a duration of one second, but terminated immediately when contact between the animal and drink tube was broken.
PROCEDURE: On day one, after 24 hours of water deprivation, experimental subjects were placed in the test chambers and allowed to drink unpunished for a 10-minute training session. Mice were required to complete a 100-150 lick criteria during the training session. Subjects that completed the training criteria prior to the end of the 10-minute session were removed so that drinking was restricted in all subjects to 25% of their total daily intake. […] Immediately after the day one session mice were returned to their home cages and deprived of water and food for an additional 24 hours. On test day two, mice were dosed by intraperitoneal (IP) injection with vehicle or test compound. After a 60 or 120-minute absorption period mice were placed into the test chambers for a 10-minute test session. During the test, shock was delivered on a fixed ratio (FR) 10 schedule. Therefore, after every 10th lick the subject received a mild shock. […] A low number of shock episodes accepted reflects anxiety-related behavior. Standard anxiolytic drugs produce effects that allow mice to overcome the behavioral inhibition and drink despite the shock. […] All data were analyzed using a one-way ANOVA/Dunn's Method.
DRUGS: Pregabalin was dissolved in physiological saline for all experiments. The positive control diazepam was suspended in 2% cremophor in physiological saline. All drugs were dosed in a volume of 10 mL/kg.
C57BL/6J mice were tested at 0.4 mA, C57BL/6J-Tyr mice were tested at 0.1 mA and 129S6/SvEV mice were tested at 0.6 mA. Each dose-response study included a no-shock vehicle control group directly compared to the concurrent vehicle punished-responding group to evaluate the suppression of drinking. […] For all experiments, sedation was noted when both symptoms of ataxia (unsteady gait) and a reduced response to handling were observed after dosing and described as mild, moderate or severe.
WT mice were tested at 0.1 mA, HET mice were tested at 0.4 mA and KI mice were tested at 0.7 InA. Each experiment included a no-shock vehicle control group for direct comparison to the concurrent vehicle punished-responding group to determine percent suppression of drinking.

[4] = system: α2/δ1 R217A wild type, heterozygous and homozygous mice; test: Formalin foot-pad procedure (formalin-induced hyperalgesia); type: in vivo, mouse; conditions: PO 120 minutes prior to testing, FIG. 4
Description: Male α2/δ1 R217A wild type, heterozygous, and homozygous mice, weighing 19-40 grams, were used for testing. Animals were maintained on a 12 hour light/dark cycle with food and water available ad libitum. Animals were food deprived overnight the day before testing. On test day, animals were acclimated to the observation chambers for approximately 60 min. The observation chambers were eight inch square boxes consisting of solid, acrylic plastic mirrors for the floor and 3 walls. The fourth wall was clear acrylic that allowed for observation. Animals were dosed PO with either vehicle or pregabalin, 120 minutes prior to testing at a dose volume 10 ml/kg. At test time, animals received a 25 μL injection of a 5% formalin solution in water in the plantar surface of the left hind foot. […] These behaviors were timed using a hand-held stopwatch and recorded at 5 min intervals. Data was analyzed by the two distinct phases of responding. Early phase responding included Minutes 0-10, and late phase responding included Minutes 11-45. The total time spent licking by drug-treated animals in each phase was compared to the total time spent licking by vehicle-treated animals.

[5] = system: α2/δ1 R217A wild type and homozygous mice; test: Tail Suspension Test (TST); type: in vivo, mouse; conditions: R217A mutant vs wildtype mice; dosed 120 minutes prior; FIG. 5
Description: Male α2/δ1 R217A wild type and homozygous mice, weighing 22-35 grams, were used for testing. Animals were maintained on a 12 hour light/dark cycle with food and water available ad libitum. Animals were food deprived overnight the day before testing. On test day, animals were placed by groups of 8 into holding cages to acclimate for sixty minutes prior to dosing. Vehicle or pregabalin was administered 120 minutes prior to testing at a dose volume of 10 mL/kg. At test time, a piece of transparent tape was placed around the distal portion of the tail. The tape was then attached to a hook connected to an electro-mechanical apparatus that recorded the amount of time a mouse moved and the force used during movement. The hook was located at the top of a 24×18 cm testing chamber. Animals were completely suspended in air approximately 5 cm off the floor of the chamber for six minutes. Mean time of struggling and force of movement were then calculated for each group of eight.
Animals are placed by groups of eight into holding cages to acclimate for thirty to sixty minutes prior to dosing. Treatments are generally administered 60 to 120 minutes prior to testing, although this also varies with specific compounds. At test time, a piece of scotch tape is placed around the distal portion of the tail. […]

[6] = system: R217A knock-in and wild-type mice; test: Chronic constriction injury (CCI)-induced static allodynia, von Frey hairs; type: in vivo, mouse; conditions: for efficacy in CCI-induced allodynia: 30-100mg/kg, p.o.; for effect on CCI-induced punctate allodynia: sub cutaneous 30-100mg/kg, FIG. 8
Source text: Animals were placed in an anaesthetic chamber and anaesthetised with a 2% isofluorane O2 mixture. The right hind thigh is shaved and swabbed with 1% iodine. Animals were then transferred to a homeothermic blanket for the duration of the procedure and anaesthesia maintained during surgery via a nose cone. The skin was cut along the line of the thigh bone. The common sciatic nerve was exposed at the middle of the thigh by blunt dissection through biceps femoris. Proximal to the sciatic trifurcation, about 5mm of nerve was freed by inserting forceps under the nerve and the nerve gently lifted out of the thigh. The forceps were gently opened and closed several times to aid clearance of the fascia from the nerve. Suture was pulled under the nerve using forceps and tied in a simple knot until slight resistance was felt and then double knotted. The procedure was repeated until 3 ligatures (4-0 silk) were tied loosely around the nerve with approx 1 mm spacing. The incision was closed in layers and the wound treated with topical antibiotics.
Animals were habituated to wire test cages prior to the assessment of allodynia. Static allodynia was evaluated by application of von Frey hairs (Stoelting, Wood Dale, Ill., U.S.A.) in ascending order of force ([…], 0.4, 0.6, 1.0, 1.5 and 2.0 g) to the plantar surface of hind paws. Each von Frey hair was applied to the paw for a maximum of 6 seconds, or until a withdrawal response occurred. Once a withdrawal response to a von Frey hair was established, the paw was re-tested, starting with the filament below the one that produced a withdrawal, and subsequently with the remaining filaments in descending force sequence until no withdrawal occurred. Each animal had both hind paws tested in this manner. The lowest amount of force required to elicit a response was recorded as paw withdrawal threshold (PWT) in grams. […]
(§1) Following drug administration PWT were re-assessed for up to 4 h. The static allodynia data is expressed as median force (g) required to induce a paw withdrawal in 6-7 animals per group (vertical bars represent 1st and 3rd quartiles) *P<0.05, **P<0.01***P<0.005 (Mann Whitney U test) from vehicle treated group at each time point.
as §1, with “It was examined whether pregabalin produced an anti-allodynic action in both the knock-in and wild-type mice. […] Baseline (BL) paw withdrawal thresholds (PWT) to von Frey hairs were assessed. Following” for “Following”

Structure (SMILES)	responsiveness to anticonvulsant effects ([1]; FIG. 9)	gabapentin binding to brain membranes [2]	minimally effective dose (MED), Vogel ([3]; 129S6/SvEv, shock 0.6 mA)	minimally effective dose (MED), Vogel ([3]; C57BL/6J, shock 0.4 mA)	minimally effective dose (MED), Vogel ([3]; C57 albino, shock 0.1 mA)	minimally effective dose (MED), Vogel ([3]; Hets, shock 0.4 mA)	minimally effective dose (MED), Vogel ([3]; Knockins, shock 0.7 mA)	anxiolytic-like effect / punished licking, Vogel [3]	minimally effective dose (MED), Vogel ([3]; Wild Type, shock 0.1 mA)	efficacy on formalin-induced hyperalgesia [4]	effect in Tail Suspension Test [5]	efficacy in CCI-induced allodynia ([6]; knock-in animals)	effect on CCI-induced punctate allodynia ([6]; knock-in mice)	efficacy in CCI-induced allodynia ([6]; wild type mice)	effect on CCI-induced punctate allodynia ([6]; wild type mice)	increase in punished responding @ 100, Vogel ([3]; Knockins, dose 100)	anxiolytic-like effect / punished licking, Vogel ([3]; listed as Pregabalin)	potency in protecting against seizures ([1]; mutant mice vs wild-type, heterozygous or back-ground strains)	anticonvulsant effects ([1]; −/− mice as compared to +/+ mice, FIG. 9)	sensitivity to effects in MES ([1]; −/− mice vs +/+ mice, FIG. 9)
O=C1NC(=O)C(c2ccccc2)(c2ccccc2)N1 [phenytoin]	fully responsive																			
NCC1(CC(=O)O)CCCCC1 [gabapentin, 1-(aminomethyl)cyclohexaneacetic acid]		reduced, or greatly abolished																		
CN1C(=O)CN=C(c2ccccc2)c2cc(Cl)ccc21 [diazepam]	fully responsive		inactive	3.2	3.2	3.2	inactive	Diazepam (+ control) failed to produce an anxiolytic-like effect in R217A knockins. Data suggests 129S6-parent strain's genotype may be responsible for pharmacological profile of diazepam	3.2											
CC(C)C[C@H](CN)CC(=O)O [pregabalin]			32	10	10	10	inactive	does not produce a statistically significant increase	32	reduced efficacy	exerts its sedative and/or anxiolytic effect in TST through the α2/δ1 polypeptide	failed to demonstrate any efficacy	no effect	typical efficacy	significant blockade	non-significant	Pregabalin did not produce a significant anxiolytic-like effect in R217A knockins, and no evidence was obtained relating phenotype to particular parent strain	less potent	reduced	less sensitive

Source: patent publication US20050044581A1, “Animals and cells containing a mutated alpha2/omega1 gene” (priority 2003, published 2005)
